Laboratory results reported in article PMC5797143, “Epigenetic modulation of inflammation and synaptic plasticity promotes resilience against stress in mice” (Nature Communications, 2018).

Columns and labels:
[1] = tested on: CpG-rich sequences of mouse IL-6 promoter and introns 1, 3; experiment: CpG-free luciferase reporter with IL-6 promoter/intron CpG-rich segments in N2a cells; format: cell-based; details: 24 h
Description: To investigate how DHCA may attenuate IL-6 generation, we tested the effect of DHCA on Toll-like receptor-4 mediated signaling pathways. PBMCs were pretreated with DHCA and stimulated with LPS using the same protocol as during screening. Samples were taken at 0, 30 min, 60 min, 6 h and 16 h following LPS stimulation and cell lysates were subjected to a multiplex ELISA assay. […] Based on evidence that DNA methylation at a single CpG in the human IL-6 promoter region effectively alters IL-6 expression, we next tested whether DHCA can modulate IL-6 gene expression through methylation mechanisms. We treated PBMC cells with DHCA and measured the expression of enzymes essential for DNA methylation/demethylation. […] To investigate how methylation influences IL-6 gene expression, we employed the CpG-free luciferase reporter system. We cloned a ~280 bp CpG rich DNA segment from the mouse IL-6 promoter into a promoterless CpG-free reporter construct and transfected into N2a cells. We found the CpG-rich IL-6 promoter segment presented no inherent promoter activity as reflected by no differences in luciferase activity compared to the control construct (Fig. 2f). […] We then cloned CpG rich DNA segments from IL-6 introns 1, 3 or 4 into the CpG-free luciferase reporter construct with a minimal EF1 promoter and no enhancer activity. […] In contrast, the CpG-rich region of IL-6 intron 4 presented no observable enhancer activity (Fig. 2g). […] To test whether DHCA may influence the expression of other pro-inflammatory factors, we measured the level of secreted cytokines following LPS stimulation (Supplementary Fig. 3).
CpG-rich motif from mouse IL-6 promoter and intron 1, intron 3, and intron 4 were cloned into basic (no promoter or enhancer) or promoter (minimal EF1 promoter with no enhancer) pCpG-free Lucia plasmid (InvivoGen) using In-Fusion Cloning Kit (Clontech Laboratories). Plasmids were prepared in E. coli GT115 cells and expressed in N2A neuoblastoma cells using lipofectamine 2000 (ThermoFisher) according to manufacturer’s instruction. Following overnight recovery, cells were subjected to 5 µM of methylation inhibitor 5-Aza-2′-deoxycytidine (AZA-DC) or DHCA treatment. Twenty-four hours later, 10 µl of medium was incubated with 50 µl of QUANTI-Luc luciferase substrate for luciferase activity assessment.

[2] = tested on: stress susceptible C57BL/6 mice after RSDS; experiment: RSDS, therapeutic treatment of susceptible mice; format: in vivo, mouse; details: Imipramine 20 mg/kg-BW/day i.p. for 35 days
From the text: To test the therapeutic efficacy of DHCA/Mal-gluc, we induced depression-like behavior using two different methods. In the first set of studies, mice were subjected to RSDS followed by SI test. All susceptible mice with SI ratio <0.8 were randomly grouped into vehicle or DHCA/Mal-gluc group. Following two weeks treatment, all mice were subjected to SI re-testing without further stress exposure (Fig. 5a). […] In a parallel study to compare the treatment efficacy with the tricylic antidepressant Imipramine, we treated the susceptible mice with Imipramine through i.p. injection for 35 days. […] We then examined the effect of DHCA/Mal-gluc on RSDS-induced anhedonia and an ethologically relevant self-neglect phenotype. […] We next measured the levels of IL-6 in plasma and Rac1 in the NAc after behavioral testing. […]
All social interaction (SI) tests were performed under red-light conditions. […] Their movements were automatically monitored and recorded (Ethovision 3.0; Noldus Information Technology) for 2.5 min in the absence (target absent phase) of a novel CD-1 mouse and followed by 2.5 min exploratory behavior in the presence of a caged CD-1 mouse (target present phase). SI behavior was then calculated as a ratio of the time spent in the interaction zone with the target present divided by the time spent in the interaction zone with the target absent. […]

[3] = in vivo, po; cited from earlier work

Row | Molecule | Detection in Brain [3] | Detection in Plasma [3] | other results
1 | Nc1ncn([C@H]2C[C@H](O)[C@@H](CO)O2)c(=O)n1 [AZA-DC, 5-aza-2′-deoxycytidine] |  |  | luciferase expression, CpG-rich IL-6 promoter segment ([1]; 5 µM): no effect; luciferase (enhancer) activity, IL-6 intron 1 [1]: partially reduced; luciferase (enhancer) activity, IL-6 intron 3 [1]: totally abolished
2 | CN(C)CCCN1c2ccccc2CCc2ccccc21 [Imipramine] |  |  | susceptible mice with resilient phenotype upon retesting [2]: about 50%
3 | OMe-quercetin-glucuronide | + | + | 
4 | OMe-resveratrol-glucuronide | + | + | 
5 | quercetin-glucuroide | + | + | 
6 | resveratrol-glucuronide | + | + | 
